Source: patent publication USRE37781E1, “Substituted cyclic carbonyls and derivatives thereof useful as retroviral protease inhibitors” (DuPont Pharmaceuticals Company, priority 1991, dated 2002)
pKi: −log10 of the molar value. Like-named read-outs stand apart in the source and are kept apart here.

Tests used:
HIV-1 (RF) in MT-2 cells = assay: microbe, parasite or virus in culture; assay type: cell-based
Method in brief: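 Read-out: gag and pol viral RNA captured by 5′-biotinylated oligonucleotides on streptavidin-coated wells, detected with alkaline phosphatase-linked reporter oligonucleotides, calibrated against BH10 in vitro transcripts. Virus stocks (RF, MN, IIIB) come from H9 cultures; MT-2 host cells kept in RPMI 1640, 5% FCS.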

HIV protease = target: T1, HIV protease (Human immunodeficiency virus type 1 group M subtype B, UniProt P04585); assay: biochemical; set-up: species or system HIV-1
T1 construct: plasmid containing HIV protease under the control of an inducible T7 promoter; made in house; host or cells: E. coli (inclusion bodies, T7 promoter)
Protocol: HIV Protease Inhibition Assay—Spectroscopic Method
Inclusion bodies were solubilized in 8M urea, 50 mM tris pH 8.0. Protease activity was recovered by dilution 20-fold into buffer containing 50 mM sodium acetate pH 5.5, 1 mM EDTA, 10% glycerol and 5% ethylene glycol. Enzyme was used at a final concentration of 1.0-10 ug/ml.
Stock solutions of 10 mM were prepared in DMSO.
All further dilutions were done in DMSO.

[1] = Human immunodeficiency virus 1, MT2, Table 1e, read-out: IC90
[2] = Human immunodeficiency virus 1, MT2, 24 h, Table 1d, upper part, read-out: IC90
[3] = Table 1d, upper part, read-out: Ki

## O=C1N(Cc2cccc(CO)c2)[C@H](CCc2ccccc2)[C@@H](O)[C@@H](Cc2ccccc2)N1Cc1cccc(CO)c1 [Example 8Z]
HIV-1 (RF) in MT-2 cells; [1]
  IC90: < 10 µg/mL
HIV protease; Ki
  pKi: > 8.00

## CC(C)CCCCCN1C(=O)N(CCCCCC(C)C)C(Cc2ccccc2)C(O)C(O)C1Cc1ccccc1 (centres unmarked) [Example 1AL]
other
  melting point: 144 to 145 °C
HIV protease; Ki
  pKi: 6.00 to 8.00

## NC(=O)c1cccc(CN2C(=O)N(Cc3cccc(C(N)=O)c3)C(Cc3ccccc3)C(O)C2CCc2ccccc2)c1 (centres unmarked) [Example 8AP]
HIV-1 (RF) in MT-2 cells; [1]
  IC90: > 100 µg/mL
HIV protease; Table 1e, read-out: Ki
  pKi: < 6.00

## N#Cc1cccc(CN2C(=O)N(Cc3cccc(C#N)c3)[C@H](Cc3ccccc3)[C@H](O)C2CCc2ccccc2)c1 (some centres unmarked) [Example 8O]
HIV-1 (RF) in MT-2 cells; Table 1e
  IC90: +++ (+++=<10 μg/mL)
HIV protease; Ki
  pKi: 6.00 to 8.00

## O=C1N(Cc2ccc3ccccc3c2)[C@H](Cc2ccccc2)C[C@@H](O)[C@@H](Cc2ccccc2)N1Cc1ccc2ccccc2c1 [Example 7T]
HIV-1 (RF) in MT-2 cells; [2]
  IC90: > 100 µg/mL
HIV protease; [3]
  pKi: > 8.00

## O=C1N(Cc2cccc(OCc3ccccc3)c2)C(Cc2ccccc2)C(O)C2C(Cc3ccccc3)N12 (centres unmarked) [Example 21E]
HIV-1 (RF) in MT-2 cells; Table 2j
  IC90: ++/+ (The ++/+ is used in the cases where an IC90 was determined to be >50 μg/mL)
HIV protease; Table 2j, read-out: Ki
  pKi: < 6.00

## O=C1N(Cc2ccc(CO)cc2)[C@H](CCc2ccccc2)C[C@@H](Cc2ccccc2)N1Cc1ccc(CO)cc1 [Example 8AC]
HIV-1 (RF) in MT-2 cells; [1]
  IC90: < 10 µg/mL
HIV protease; Table 1e, read-out: Ki
  pKi: 6.00 to 8.00

## C=C(C)CN1C(=O)N(CC(=C)C)C(Cc2ccccc2)C(O)C(O)C1Cc1ccccc1 (centres unmarked) [Example 1AJ]
other
  melting point: 205 to 207 °C
HIV protease; Table 1a, read-out: Ki
  pKi: > 8.00

## CCN1C(=O)N(CC)C(Cc2ccccc2)C(O)C(O)C1Cc1ccccc1 (centres unmarked) [Example 1AD]
other
  melting point: 214 to 215 °C
HIV protease; Table 1a, read-out: Ki
  pKi: 6.00 to 8.00

## CCCCCN1C(=O)N(CCCCC)C(Cc2ccccc2)C(O)C(O)C1Cc1ccccc1 (centres unmarked) [Example 1AK]
other
  melting point: 125 to 127 °C
HIV protease; Ki
  pKi: > 8.00

## CC(=O)OC1C(O)C(Cc2ccccc2)N(Cc2ccc3ccccc3c2)C(=O)N(Cc2ccc3ccccc3c2)C1Cc1ccccc1 (centres unmarked) [Example 7K]
HIV-1 (RF) in MT-2 cells; [2]
  IC90: > 100 µg/mL
HIV protease; [3]
  pKi: 6.00 to 8.00

## CC(C)CCCCN1C(=O)N(CCCCC(C)C)C(Cc2ccccc2)C(O)C(O)C1Cc1ccccc1 (centres unmarked) [Example 1AN]
other
  melting point: 105 to 107 °C
HIV protease; Ki
  pKi: 6.00 to 8.00

## O=C1N(Cc2ccccc2)C(Cc2ccccc2)C(O)C2C(Cc3ccccc3)N12 (centres unmarked) [Example 21D]
HIV-1 (RF) in MT-2 cells; Table 2j
  IC90: ++/+ (The ++/+ is used in the cases where an IC90 was determined to be >50 μg/mL)
HIV protease; Table 2j, read-out: Ki
  pKi: < 6.00

## O=C1OC2C(O1)C(Cc1ccccc1)N(CC1CC1)C(=O)N(CC1CC1)C2Cc1ccccc1 (centres unmarked) [Example 7G]
HIV-1 (RF) in MT-2 cells; [2]
  IC90: < 10 µg/mL
HIV protease; Ki
  pKi: 6.00 to 8.00

## CC(=O)c1cccc(CN2C(=O)N(Cc3cccc(C(C)=O)c3)[C@H](Cc3ccccc3)[C@H](O)[C@H]2CCc2ccccc2)c1 [Example 8P]
HIV-1 (RF) in MT-2 cells; [1]
  IC90: < 10 µg/mL
HIV protease; Ki
  pKi: > 8.00

## O=C1NC(Cc2ccccc2)C(O)C2C(Cc3ccccc3)N12 (centres unmarked) [Example 21A]
HIV-1 (RF) in MT-2 cells; Table 2j
  IC90: ++/+ (The ++/+ is used in the cases where an IC90 was determined to be >50 μg/mL)
HIV protease; Table 2j, read-out: Ki
  pKi: < 6.00

## C=CCN1C(=O)N(CC=C)C(Cc2ccccc2)C(OC(C)=O)C(O)C1Cc1ccccc1 (centres unmarked) [Example 7A]
HIV-1 (RF) in MT-2 cells; [2]
  IC90: < 10 µg/mL
HIV protease; [3]
  pKi: < 6.00

## CC1(C)OC2C(O1)C(Cc1ccccc1)N(Cc1ccc3ccccc3c1)C(=O)N(Cc1ccc3ccccc3c1)C2Cc1ccccc1 (centres unmarked) [Example 7R]
HIV-1 (RF) in MT-2 cells; [2]
  IC90: > 100 µg/mL
HIV protease; [3]
  pKi: < 6.00

## O=C1OC2C(OC1=O)C(Cc1ccccc1)N(Cc1ccc3ccccc3c1)C(=O)N(Cc1ccc3ccccc3c1)C2Cc1ccccc1 (centres unmarked) [Example 7P]
HIV-1 (RF) in MT-2 cells; [2]
  IC90: < 10 µg/mL
HIV protease; [3]
  pKi: > 8.00

## N#CN=C1N(Cc2cccc(C=O)c2)C(Cc2ccccc2)C(O)C(O)C(Cc2ccccc2)N1Cc1cccc(C=O)c1 (centres unmarked) [Example 1CP]
HIV-1 (RF) in MT-2 cells; Human immunodeficiency virus 1, MT2, Table 1c, read-out: IC90
  IC90: < 10 µg/mL
HIV protease; Ki
  pKi: > 8.00

## C=CCN1C(=O)N(CC=C)C(Cc2ccccc2)C2OS(=O)OC2C1Cc1ccccc1 (centres unmarked) [Example 7C]
HIV-1 (RF) in MT-2 cells; [2]
  IC90: < 10 µg/mL
HIV protease; [3]
  pKi: > 8.00

## O=C1N[C@H](C(O)Cc2ccccc2)[C@@H](O)[C@@H](Cc2ccccc2)N1Cc1ccccc1 (some centres unmarked) [Example 8Q]
HIV-1 (RF) in MT-2 cells; Table 1e
  IC90: ++ (++=10 to 100 μg/mL)
HIV protease; Table 1e, read-out: Ki
  pKi: 6.00 to 8.00

## CCCCCCCN1C(=O)N(CCCCCCC)C(Cc2ccccc2)C(O)C(O)C1Cc1ccccc1 (centres unmarked) [Example 1AB]
other
  melting point: 100 to 101 °C
HIV protease; Table 1a, read-out: Ki
  pKi: 6.00 to 8.00

## C=CCN1C(=O)N(CCCC)C(Cc2ccccc2)C2OC(=O)OC2C1Cc1ccccc1 (centres unmarked) [Example 7E]
HIV-1 (RF) in MT-2 cells; [2]
  IC90: < 10 µg/mL
HIV protease; Ki
  pKi: 6.00 to 8.00

## CC(=O)OC1C(Cc2ccccc2)N(Cc2ccccc2)C(=O)N2C(Cc3ccccc3)C12 (centres unmarked) [Example 21B]
HIV-1 (RF) in MT-2 cells; Table 2j
  IC90: ++/+ (The ++/+ is used in the cases where an IC90 was determined to be >50 μg/mL)
HIV protease; Table 2j, read-out: Ki
  pKi: < 6.00
